Read-outs that look alike come from different tables or passages of the source. One block for each molecule: values may come before it.
Key:
Skin penetration = conditions: without assistance from penetration enhancers
[1] = Example 3: pharmacokinetics of 4-hydroxy tamoxifen gel in healthy premenopausal women; type: in vivo, human
Description: Each participant applied the gel daily for the duration of two menstrual cycles.
At the end of a menstrual cycle, each patient received a single dose, after which serial blood samples were collected at 0, 0.5, 1, 1.5, 2, 3, 4, 6, 12, 18, 24, 36, 48, and 72 hours.
On the first day of the following menstruation, treatment, which consisted of daily application of the gel over two menstrual cycles, began. Blood samples were collected 24 hours following the morning application of gel on days 7, 20 and 25 of the first and second cycles. On the last day of administration, day 25 of the second menstrual cycle, serial blood samples were collected prior to application and at 0.5, 1, 1.5, 2, 3, 4, 6, 12, 18, 24, 36, 48, and 72 hours after application of the gel.

mastalgia [2] = assay: Example 4: efficacy of percutaneous 4-hydroxy tamoxifen in mastalgia; type: in vivo, human
From the text: All patients had normal mammograms within the previous 6 months, and utilized contraception throughout the study and 3 months preceding it.
The primary criteria considered were the number of painful days per month and the mean pain severity during the last 10 days of the menstrual cycle. Assessments of pain were made by patient self-evaluation. Secondary criteria included clinical assessment by the physician of breast tenderness, nodularity, breast size, local warmth, and breast circumference. Any side effects were recorded.
Daily self-evaluation of pain continued as in the earlier stage.

rat liver = conditions: in vivo; cited from earlier work
[3] = Example 1: percutaneous [3H]-4-hydroxy tamoxifen delivery in breast cancer patients (tissue, blood, urine radioactivity)
Description: The patients received [^3H]-labeled drug applied directly on the affected breasts at specified intervals ranging from 12 hours to 7 days before surgery to excise diseased tissue. Breast tissue from three regions: the tumor, tissue immediately surrounding the tumor, and normal tissue, was excised and immediately frozen in liquid nitrogen. Additionally, plasma and urine samples were obtained at scheduled intervals and frozen until analysis.

mastalgia [4] = conditions: cited from earlier work; for side effects: cyclical mastalgia treatment, nausea, vomiting, dizziness, headache, acne, sweating, amenorrhea, weight gain

SMILES: CC/C(=C(\c1ccc(O)cc1)c1ccc(OCCN(C)C)cc1)c1ccccc1 [4-hydroxy tamoxifen, 1-[4-(2-N-dimethylaminoethoxy)phenyl]-1-(4-hydroxyphenyl)-2-phenylbut-1-(Z)-ene]
skin penetration (Skin penetration): poorly penetrates the skin
plasma concentrations after the last gel application ([1]; 72 hours after the last gel application): remained detectable
Plasma concentration of 4-hydroxy tamoxifen, Mean ± SD (Range) ([1]; +8 days after last application, 0.5 mg/day, gel 20 mg/100 g): <LOQ
Plasma concentration of 4-hydroxy tamoxifen, Mean ± SD (Range) ([1]; +8 days after last application, 1 mg/day, gel 57 mg/100 g): (0-14.8) pg/mL
Plasma concentration of 4-hydroxy tamoxifen, Mean ± SD (Range) ([1]; +12 days after last application, 0.5 mg/day, gel 20 mg/100 g): ≤ 9.09 pg/mL
Plasma concentration of 4-hydroxy tamoxifen, Mean ± SD (Range) ([1]; +12 days after last application, 2 mg/day, gel 57 mg/100 g): (0-30.4) pg/mL
Plasma concentration of 4-hydroxy tamoxifen, Mean ± SD (Range) ([1]; +20 days after last application, 0.5 mg/day, gel 20 mg/100 g): 0 pg/mL
Plasma concentration of 4-hydroxy tamoxifen, Mean ± SD (Range) ([1]; +20 days after last application, 1 mg/day, gel 20 mg/100 g): <LOQ
Plasma concentration of 4-hydroxy tamoxifen, Mean ± SD (Range) ([1]; First cycle, Day 1, 0 hr, 0.5 mg/day, gel 20 mg/100 g): (0-17.2) pg/mL
Plasma concentration of 4-hydroxy tamoxifen, Mean ± SD (Range) ([1]; First cycle, Day 1, 0 hr, 1 mg/day, gel 20 mg/100 g): (0-13.9) pg/mL
Plasma concentration of 4-hydroxy tamoxifen, Mean ± SD (Range) ([1]; First cycle, Day 1, 0 hr, 1 mg/day, gel 57 mg/100 g): (0-9.5) pg/mL
Plasma concentration of 4-hydroxy tamoxifen, Mean ± SD (Range) ([1]; First cycle, Day 1, 0 hr, 2 mg/day, gel 57 mg/100 g): (0-0) pg/mL
plasma concentrations after a single dose ([1]; single 0.5 mg dose, gel): did not produce detectable plasma concentrations
reduction of mean number of days with pain (mastalgia [2]; 1.5 mg/day): more than 50%
reduction of mean pain intensity (mastalgia [2]; 1.5 mg/day): more than 50%
Mean Number of Days of Pain Level Greater than 20 (mastalgia [2]; 1 dose/breast, 0.5 mg/day, placebo 8.1 +/− 4.2): 9.3 ± 5.2 days
Mean Pain Intensity During the Last 10 Days of the Menstrual Cycle (mastalgia [2]; 1 dose/breast, 0.5 mg/day, placebo 34 +/− 25): 38 +/− 25 /100
Mean Number of Days of Pain Level Greater than 20 (mastalgia [2]; 2 doses/breast, 1.0 mg/day): 8.2 ± 5.5 days
Mean Pain Intensity During the Last 10 Days of the Menstrual Cycle (mastalgia [2]; 2 doses/breast, 1.0 mg/day): 29 +/− 23 /100
Mean Number of Days of Pain Level Greater than 20 (mastalgia [2]; 3 doses/breast, 1.5 mg/day): 3.6 ± 5.2 days
Mean Pain Intensity During the Last 10 Days of the Menstrual Cycle (mastalgia [2]; 3 doses/breast, 1.5 mg/day): 15 +/− 19 /100
Mean Number of Days of Pain Level Greater than 20 (mastalgia [2]; 4 doses/breast, 2.0 mg/day): 4.7 ± 4.4 days
Mean Pain Intensity During the Last 10 Days of the Menstrual Cycle (mastalgia [2]; 4 doses/breast, 2.0 mg/day): 17 +/− 19 /100
rat liver carcinogenicity (rat liver): not
peak urinary elimination compared to percutaneous tamoxifen ([3]; percutaneous administration): later time
metabolism in cytosolic and nuclear fractions of breast tissue ([3]; percutaneous application): remained unmetabolized except for limited isomerization from the trans to the cis form

SMILES: CCC(=C(c1ccc(O)cc1)c1ccc(O)cc1)c1ccccc1 [Bisphenol]
% Metabolites in Breast Tissue ([3]; 12 hr after percutaneous trans-[3H]-4-hydroxy tamoxifen to the affected breast): 1%
share of radioactivity in blood ([3]; 24 hours after percutaneous administration of [3H]-4-hydroxy tamoxifen): 11%
% Metabolites in Breast Tissue ([3]; 24 hr after percutaneous trans-[3H]-4-hydroxy tamoxifen to the affected breast): 2%
% Metabolites in Breast Tissue ([3]; 36 hr after percutaneous trans-[3H]-4-hydroxy tamoxifen to the affected breast): 3%
% Metabolites in Breast Tissue ([3]; Day 4 after percutaneous trans-[3H]-4-hydroxy tamoxifen to the affected breast): 8%
% Metabolites in Breast Tissue ([3]; Day 7 after percutaneous trans-[3H]-4-hydroxy tamoxifen to the affected breast): 8%

plateau of radioactivity in blood ([3]; percutaneous application): 2 days
SMILES: CC/C(=C(\c1ccccc1)c1ccc(OCCN(C)C)cc1)c1ccccc1 [[^3H]-tamoxifen, reference compound]

SMILES: CC(C)C[C@H]1C(=O)N2CCC[C@H]2[C@]2(O)O[C@](NC(=O)[C@@H]3C=C4c5cccc6[nH]c(Br)c(c56)C[C@H]4N(C)C3)(C(C)C)C(=O)N12 [bromocriptine]
side effects (mastalgia [4]): significant unwanted side effects

SMILES: C#C[C@]1(O)CC[C@H]2[C@@H]3CCC4=Cc5oncc5C[C@]4(C)[C@H]3CC[C@@]21C [danazol]
side effects (mastalgia [4]): significant unwanted side effects
efficacy at relieving cyclical mastalgia (mastalgia [4]; human, in vivo): some efficacy

retention in the breast ([3]; percutaneous application of [3H]-labeled drug to the affected breast): shorter and far weaker
SMILES: CC/C(=C(\c1ccccc1)c1ccc(OCCN(C)C)cc1)c1ccccc1 [tamoxifen]
side effects reported by mastalgia patients (mastalgia [4]; oral tamoxifen): hot flashes, vaginal discharge, depression, amenorrhea, and nausea
patients with reduced pain (mastalgia [4]; orally administered, patients with moderate to severe mastalgia): 71-90%
effective at reducing pain (mastalgia [4]; patients with cyclical mastalgia): 94%
effective at reducing pain (mastalgia [4]; patients with non-cyclical mastalgia): 56%
